ChEMBL document CHEMBL4270563, “Neurogenic and neuroprotective donepezil-flavonoid hybrids with sigma-1 affinity and inhibition of key enzymes in Alzheimer's disease” (Eur J Med Chem, 2018)
Activity calls are given as the source filed them. The calls are words filed in the database; no cut-off is given here.

What was measured:
Acetylcholinesterase [1] = target: T1, Acetylcholinesterase (Homo sapiens, UniProt P22303); assay: Inhibition of recombinant human AChE expressed in HEK293 cells using acetylthiocholine iodide as substrate pretreated for 5 mins followed by substrate addition and measured for 5 mins by Ellman's method
T1 sequence (P22303 whole entry): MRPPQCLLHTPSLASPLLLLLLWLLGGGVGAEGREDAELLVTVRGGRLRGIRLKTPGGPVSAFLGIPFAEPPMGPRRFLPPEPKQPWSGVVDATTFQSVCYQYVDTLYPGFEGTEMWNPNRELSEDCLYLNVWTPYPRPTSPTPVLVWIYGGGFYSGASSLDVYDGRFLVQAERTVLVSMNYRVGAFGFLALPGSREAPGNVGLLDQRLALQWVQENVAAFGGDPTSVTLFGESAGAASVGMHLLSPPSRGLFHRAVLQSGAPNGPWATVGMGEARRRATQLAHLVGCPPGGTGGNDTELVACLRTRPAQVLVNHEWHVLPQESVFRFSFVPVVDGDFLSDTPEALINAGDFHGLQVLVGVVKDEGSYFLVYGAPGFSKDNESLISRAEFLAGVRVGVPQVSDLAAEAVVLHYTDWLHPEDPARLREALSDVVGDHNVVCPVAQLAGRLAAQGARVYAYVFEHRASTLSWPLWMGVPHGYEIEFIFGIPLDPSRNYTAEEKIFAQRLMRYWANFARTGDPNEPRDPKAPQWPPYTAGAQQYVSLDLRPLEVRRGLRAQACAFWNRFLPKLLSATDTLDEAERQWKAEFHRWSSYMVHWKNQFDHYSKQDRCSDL

Cholinesterase = Cholinesterase (Homo sapiens, UniProt P06276); assay: Inhibition of human serum BuChE using butyrylthiocholine as substrate pretreated for 5 mins followed by substrate addition and measured for 5 mins by Ellman's method
Chain of Cholinesterase (P06276 whole entry): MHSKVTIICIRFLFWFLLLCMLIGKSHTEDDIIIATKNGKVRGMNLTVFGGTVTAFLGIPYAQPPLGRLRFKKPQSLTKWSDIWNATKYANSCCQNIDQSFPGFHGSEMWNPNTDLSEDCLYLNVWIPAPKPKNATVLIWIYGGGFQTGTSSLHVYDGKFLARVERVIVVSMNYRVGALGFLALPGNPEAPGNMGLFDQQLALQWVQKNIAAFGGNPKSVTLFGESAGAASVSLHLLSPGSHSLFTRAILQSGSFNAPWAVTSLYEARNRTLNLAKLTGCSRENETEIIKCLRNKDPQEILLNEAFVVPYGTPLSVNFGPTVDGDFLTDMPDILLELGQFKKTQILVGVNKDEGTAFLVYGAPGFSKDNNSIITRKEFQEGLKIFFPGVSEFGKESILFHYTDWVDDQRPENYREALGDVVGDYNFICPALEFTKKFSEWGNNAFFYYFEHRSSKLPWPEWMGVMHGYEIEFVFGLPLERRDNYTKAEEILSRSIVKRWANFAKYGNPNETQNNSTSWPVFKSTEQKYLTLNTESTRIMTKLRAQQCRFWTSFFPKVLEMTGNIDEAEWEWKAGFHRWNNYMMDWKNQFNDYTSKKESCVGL

Homo sapiens [2] = organism: Homo sapiens; assay: Selectivity index, ratio of IC50 for human serum BuChE to IC50 for recombinant human AChE expressed in HEK293 cells; assay type: cell-based
[3] = target: T2, Amine oxidase [flavin-containing] A (Homo sapiens, UniProt P21397); assay: Inhibition of recombinant human MAO-A expressed in baculovirus infected BTI insect cells using p-tyramine as substrate pretreated for 15 mins followed by substrate addition by horse-radish peroxidase/amplex red-based fluorescence method
T2 sequence (P21397 whole entry): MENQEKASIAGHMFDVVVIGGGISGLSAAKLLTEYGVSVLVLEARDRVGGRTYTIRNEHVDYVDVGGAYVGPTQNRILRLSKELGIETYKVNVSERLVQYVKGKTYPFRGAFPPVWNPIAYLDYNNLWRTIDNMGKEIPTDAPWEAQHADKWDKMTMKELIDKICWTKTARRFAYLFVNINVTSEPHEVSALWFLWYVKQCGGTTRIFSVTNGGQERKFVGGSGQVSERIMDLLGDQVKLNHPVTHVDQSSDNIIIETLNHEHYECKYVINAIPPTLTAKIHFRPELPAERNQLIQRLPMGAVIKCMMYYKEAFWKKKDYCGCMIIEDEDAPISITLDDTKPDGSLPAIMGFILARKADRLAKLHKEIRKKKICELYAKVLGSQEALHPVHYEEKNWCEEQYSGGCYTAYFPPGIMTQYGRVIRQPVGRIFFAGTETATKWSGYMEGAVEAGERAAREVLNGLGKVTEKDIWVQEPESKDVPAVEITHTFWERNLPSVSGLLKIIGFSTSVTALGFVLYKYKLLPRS

[4] = target: T3, Amine oxidase [flavin-containing] B (Homo sapiens, UniProt P27338); assay: biochemical; assay type: cell-based
T3 sequence (P27338 whole entry): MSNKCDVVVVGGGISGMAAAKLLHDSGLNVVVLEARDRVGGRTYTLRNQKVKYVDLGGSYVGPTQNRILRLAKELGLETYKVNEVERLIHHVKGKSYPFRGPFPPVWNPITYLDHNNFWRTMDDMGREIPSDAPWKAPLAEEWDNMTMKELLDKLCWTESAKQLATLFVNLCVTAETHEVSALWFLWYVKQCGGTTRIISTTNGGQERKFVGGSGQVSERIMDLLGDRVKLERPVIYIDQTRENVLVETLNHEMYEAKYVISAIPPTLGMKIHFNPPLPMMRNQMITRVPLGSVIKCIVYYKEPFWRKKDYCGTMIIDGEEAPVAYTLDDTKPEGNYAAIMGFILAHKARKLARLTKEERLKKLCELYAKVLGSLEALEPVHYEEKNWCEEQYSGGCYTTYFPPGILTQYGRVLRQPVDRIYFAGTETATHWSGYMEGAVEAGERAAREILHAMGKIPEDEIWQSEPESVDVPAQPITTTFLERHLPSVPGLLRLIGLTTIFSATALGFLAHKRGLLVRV
Description: Inhibition of recombinant human MAO-B expressed in baculovirus infected BTI insect cells using p-tyramine as substrate pretreated for 15 mins followed by substrate addition by horse-radish peroxidase/amplex red-based fluorescence method

[5] = Antioxidant activity assessed as trolox equivalent of AAPH-induced radical scavenging activity pretreated for 15 mins followed by APPH challenge measured every minute for 80 mins by ORAC-FL assay; assay type: functional
SH-SY5Y [6] = assay: Neuroprotective activity against rotenone/oligomycin A-induced mitochondrial oxidative stress in human SH-SY5Y cells at 0.1 uM after 24 hrs by MTT assay relative to control; assay type: functional
SH-SY5Y [7] = assay: Neuroprotective activity against rotenone/oligomycin A-induced mitochondrial oxidative stress in human SH-SY5Y cells at 0.3 uM after 24 hrs by MTT assay relative to control; assay type: functional
SH-SY5Y [8] = assay: Neuroprotective activity against rotenone/oligomycin A-induced mitochondrial oxidative stress in human SH-SY5Y cells at 1 uM after 24 hrs by MTT assay relative to control; assay type: functional
SH-SY5Y [9] = assay: Neuroprotective activity against rotenone/oligomycin A-induced mitochondrial oxidative stress in human SH-SY5Y cells at 3 uM after 24 hrs by MTT assay relative to control; assay type: functional
in vitro = settings: PAMPA, pH 7.4
Description: Permeability of the compound in pH 7.4 PBS by PAMPA-BBB assay

Acetylcholinesterase [10] = target: T1, Acetylcholinesterase; assay: Inhibition of recombinant human AChE expressed in HEK293 cells using varying levels of acetylthiocholine iodide as substrate by Lineweaver-burk plot analysis
[11] = target: T4, Polyunsaturated fatty acid 5-lipoxygenase (Homo sapiens, UniProt P09917); assay: Inhibition of human 5-lipoxygenase using arachidonic acid as substrate pretreated for 10 mins followed by substrate and ATP addition and measured after 20 mins by H2DCFDA probe based fluorescence assay
T4 sequence (P09917 whole entry): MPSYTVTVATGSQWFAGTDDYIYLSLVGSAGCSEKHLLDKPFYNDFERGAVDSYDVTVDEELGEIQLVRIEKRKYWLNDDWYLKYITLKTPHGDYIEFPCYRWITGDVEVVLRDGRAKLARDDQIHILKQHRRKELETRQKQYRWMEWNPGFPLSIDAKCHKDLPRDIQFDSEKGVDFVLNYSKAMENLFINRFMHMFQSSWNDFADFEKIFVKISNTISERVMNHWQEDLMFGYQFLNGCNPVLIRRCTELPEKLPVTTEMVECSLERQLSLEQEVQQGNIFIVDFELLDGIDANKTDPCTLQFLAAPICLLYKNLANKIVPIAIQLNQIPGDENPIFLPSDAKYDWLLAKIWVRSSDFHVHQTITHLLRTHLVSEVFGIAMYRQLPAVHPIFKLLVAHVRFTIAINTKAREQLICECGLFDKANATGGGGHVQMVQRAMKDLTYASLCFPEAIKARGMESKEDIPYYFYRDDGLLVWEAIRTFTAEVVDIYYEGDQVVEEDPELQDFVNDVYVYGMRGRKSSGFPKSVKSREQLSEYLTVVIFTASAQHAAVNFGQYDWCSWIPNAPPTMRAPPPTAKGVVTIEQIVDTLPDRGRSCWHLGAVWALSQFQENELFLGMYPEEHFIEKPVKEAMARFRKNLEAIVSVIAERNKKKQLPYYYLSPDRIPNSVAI

[12] = target: Sigma non-opioid intracellular receptor 1 (Cavia porcellus, UniProt Q60492); assay: Displacement of (+)-[3H]pentazocine from guinea pig brain membrane sigma1 receptor by liquid scintillation counting method
Chain of Sigma non-opioid intracellular receptor 1 (Q60492 whole entry): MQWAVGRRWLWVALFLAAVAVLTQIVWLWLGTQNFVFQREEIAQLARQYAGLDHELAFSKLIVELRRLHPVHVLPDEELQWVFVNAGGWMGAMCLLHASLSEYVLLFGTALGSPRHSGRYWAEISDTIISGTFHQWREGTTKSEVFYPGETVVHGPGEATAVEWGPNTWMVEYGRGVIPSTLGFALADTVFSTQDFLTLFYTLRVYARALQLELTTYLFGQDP

[13] = target: T5, Sigma intracellular receptor 2 (Rattus norvegicus, UniProt Q5U3Y7); assay: Displacement of [3H]DTG from sigma2 receptor in rat liver membranes by liquid scintillation counting method; assay type: cell membranes, Membrane
T5 sequence (Q5U3Y7 whole entry): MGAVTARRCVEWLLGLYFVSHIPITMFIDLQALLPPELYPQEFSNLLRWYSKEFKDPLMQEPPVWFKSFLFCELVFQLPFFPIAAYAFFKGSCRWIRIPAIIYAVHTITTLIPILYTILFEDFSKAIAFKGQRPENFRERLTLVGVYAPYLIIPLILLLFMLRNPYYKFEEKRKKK

[14] = Selectivity ratio of Ki for displacement of [3H]DTG from sigma2 receptor in rat liver membranes to Ki for displacement of (+)-[3H]pentazocine from guinea pig brain membrane sigma1 receptor; assay type: cell membranes
[15] = target: T6, Polyunsaturated fatty acid 5-lipoxygenase (Homo sapiens) (UniProt P09917); assay: Inhibition of human 5-lipoxygenase at 10 uM using arachidonic acid as substrate pretreated for 10 mins followed by substrate and ATP addition and measured after 20 mins by […] probe based fluorescence assay relative to control
T6 sequence (whole entry): T4 sequence (P09917 whole entry)

Homo sapiens [16] = organism: Homo sapiens; assay: Selectivity ratio of IC50 for recombinant human MAO-B expressed in baculovirus infected BTI insect cells to IC50 for recombinant human MAO-A expressed in baculovirus infected BTI insect cells
[17] = Antioxidant activity assessed as trolox equivalent of AAPH-induced radical scavenging activity at 10 uM pretreated for 15 mins followed by APPH challenge measured every minute for 80 mins by ORAC-FL assay; assay type: functional

| SMILES | IC50 (Acetylcholinesterase [1]) [µM] | IC50 (Cholinesterase) [µM] | Ratio IC50 (Homo sapiens [2]) | IC50 [3] [µM] | IC50 [4] [µM] | Activity (umolequiv/umol) [5] | Activity (SH-SY5Y [6]) [%] | Activity (SH-SY5Y [7]) [%] | Activity (SH-SY5Y [8]) [%] | Activity (SH-SY5Y [9]) [%] | Papp (in vitro) [×10⁻⁶ cm/s] | Ki (Acetylcholinesterase [10]) [µM] | IC50 [11] [µM] | Ki [12] [µM] | Ki [13] [µM] | Ratio Ki [14] | inhibition [15] [%] | Ratio IC50 (Homo sapiens [16]) | Activity [17] |
| --- | --- | --- | --- | --- | --- | --- | --- | --- | --- | --- | --- | --- | --- | --- | --- | --- | --- | --- | --- |
| O=C(NCCC1CCN(Cc2ccccc2)CC1)c1cc(=O)c2cc(O)ccc2[nH]1 | 0.3 | 9.88 | 33 | 51.3 | 59.9 | 1.4 | 18.6 | 13.7 | 17.4 | 29.7 | 5.1 | – | – | – | – | – | – | – | – |
| COc1cc2oc(C(=O)NC3CCN(Cc4ccccc4)CC3)cc(=O)c2cc1OC | 0.66 | > 10 | > 15 | – | – | – | 5.7 | 18 | 12.3 | 12.6 | 8.1 | – | – | – | – | – | – | – | – |
| Nc1ccc2oc(C(=O)NCCC3CCN(Cc4ccccc4)CC3)cc(=O)c2c1 | 0.041 | 4.3 | 105 | > 100 | > 100 | 0.9 | – | – | – | – | 7.6 | 0.062 | 28.9 | 0.00145 | 0.421 | 290 | – | – | – |
| O=C(NCCC1CCN(Cc2ccccc2)CC1)c1cc(=O)c2c(O)cc(O)cc2o1 | 0.58 | > 10 | > 17 | – | – | 0.8 | – | – | – | – | 3.7 | – | 95.1 | – | – | – | – | – | – |
| COc1ccc2oc(C(=O)NC3CCN(Cc4ccccc4)CC3)cc(=O)c2c1 | 0.97 | > 10 | > 10 | – | – | – | 9.8 | 13.9 | 14.6 | 8.6 | 7.7 | – | – | – | – | – | – | – | – |
| O=C(NCCC1CCN(Cc2ccccc2)CC1)c1cc(=O)c2cc(O)c(O)cc2o1 | 4.13 | > 10 | > 2.4 | 70.5 | 37.9 | 1.7 | – | – | – | – | 3.2 | – | 4.2 | 0.027 | 0.278 | 10 | – | – | – |
| O=C(NCCCC1CCN(Cc2ccccc2)CC1)c1cc(=O)c2cc(O)ccc2o1 | 0.023 | > 10 | > 435 | > 100 | > 100 | 1.3 | – | – | – | – | 4.5 | 0.011 | 15.1 | 0.00348 | 0.301 | 87 | – | – | – |
| O=C(NCCC1CCN(Cc2ccccc2)CC1)c1cc(=O)c2cc(O)ccc2o1 | 0.091 | > 10 | > 110 | 39.3 | 51.2 | 1.2 | 15 | 18.8 | 8.6 | 15.2 | 2.8 | – | > 100 | 0.0421 | 0.345 | 8 | 36 | – | – |
| O=C(NCCC1CCN(Cc2ccccc2)CC1)c1cc(=O)c2cc([N+](=O)[O-])ccc2o1 | 0.021 | 9.3 | 443 | 20.5 | > 100 | – | – | – | – | – | 8.2 | 0.012 | 9.8 | 0.00098 | 0.287 | 293 | – | > 5 | inactive |
| COc1cc2oc(C(=O)OCC3CCN(Cc4ccccc4)CC3)cc(=O)c2cc1OC | 0.3 | > 10 | > 33 | – | – | – | 19.4 | 19.6 | 6.8 | 12.4 | 3.2 | – | – | – | – | – | – | – | – |
